According to patent EP2766361B1, “8-CARBAMOYL-2-(2,3-DISUBSTITUTED PYRID-6-YL)-1,2,3,4-TETRAHYDROISOQUINOLINE DERIVATIVES AS APOPTOSIS-INDUCING AGENTS FOR THE TREATMENT OF CANCER AND IMMUNE AND AUTOIMMUNE DISEASES” (priority 2011, dated 2013):

Tests used:
[1] = system: mouse FL5.12 cells transfected with Bcl-xL; test: FL5.12 cellular assay (cell viability, CellTiter-Glo); type: cell-based; details: IL-3-depleted, 3% FBS assay media, 24 hours, read-out: FL5.12 Bcl-xL, -IL3, EC50
Procedure: Cell viability was assayed using the CellTiter-Glo assay (Promega Corp., Madison, WI) according to the manufacturer instructions. Individual determinations were the result of duplicate values. […] Table 2. In Vitro Data

[2] = Single dose pharmacokinetics, oral bioavailability; type: in vivo, Sprague-Dawley rats; details: for bioavailability: rat, in vivo, po
Procedure: The single dose pharmacokinetics of select compounds were evaluated in Sprague-Dawley rats (Charles River) after a 5 mg/kg oral dose (n = 3) (10% DMSO in PEG-400) administered by gavage or by 5 mg/kg IV bolus dose (n = 3) (10% DMSO in PEG-400). Compound and the internal standard were separated from each other and coextracted contaminants on a 50 mm × 3 mm Keystone Betasil CN 5 µm column with an acetonitrile/0.1% trifluoroacetic acid mobile phase (50:50, by volume) at a flow rate of 0.7 mL/min. Analysis was performed on a Sciex API3000 biomolecular mass analyzer with a heated nebulizer interface. Compound and internal standard peak areas were determined using Sciex MacQuan software. The plasma drug concentration of each sample was calculated by least-squares linear regression analysis (nonweighted) of the peak area ratio (parent/internal standard) of the spiked plasma standards versus concentration. The plasma concentration data were submitted to multiexponential curve fitting using WinNonlin.3. The area under the plasma concentration-time curve was calculated using the linear trapezoidal rule for the plasma concentration-time profiles.
One way to calculate bioavailability of a drug or agent is by dividing the plasma concentration following an oral dose by the concentration following an intravenous dose.

[3] = system: Molt-4 human acute lymphoblastic leukemia cells; test: Molt-4 cellular assay (cell viability, MTS); type: cell-based; details: 10% human serum, 48 hours
Procedure: Molt-4 (ATCC, Manassas, VA) human acute lymphoblastic leukemia cells were plated 50,000 cells per well in 96-well tissue culture plates in a total volume of 100 µL tissue culture medium supplemented with 10% human serum (Invitrogen, Carlsbad, CA) and treated with a 3-fold serial dilution of the compounds of interest from 5 µM to […]. Each concentration was tested in duplicate at least 3 separate times. The number of viable cells following 48 hours of compound treatment was determined using the CellTiter 96® Aqueous non-radioactive cell proliferation MTS assay according to manufacturer's recommendations (Promega Corp., Madison, WI).

| SMILES | EC50 [1] [nM] | bioavailability ([2]; 1 mg/kg) [%] | bioavailability ([2]; 5 mg/kg) [%] | EC50 [3] [nM] | F (%), dose ([2]; Rat p.o. dose, 5 mpk) |
| --- | --- | --- | --- | --- | --- |
| Cc1c(-c2ccc(N3CCc4cccc(C(=O)Nc5nc6ccccc6s5)c4C3C)nc2C(=O)O)cnn1CC12CC3CC(CC(C3)C1)C2 (stereo not shown) [Example 43, 6-[8-(1,3-benzothiazol-2-ylcarbamoyl)-1-methyl-3,4-dihydroisoquinolin-2(1H)-yl]-3-[5-methyl-1-(tricyclo[3.3.1.1^3,7]dec-1-ylmethyl)-1H-pyrazol-4-yl]pyridine-2-carboxylic acid] | 9 | 20 | – | – | – |
| O=C(Nc1nc2ccccc2s1)c1cccc2c1CN(c1ccc(-c3cnn(CC45CC6CC(CC(C6)C4)C5)c3Cl)c(C(=O)O)n1)CC2 [Example 42, 6-[8-(1,3-benzothiazol-2-ylcarbamoyl)-3,4-dihydroisoquinolin-2(1H)-yl]-3-{5-chloro-1-[tricyclo[3.3.1.1^3,7]dec-1-ylmethyl]-1H-pyrazol-4-yl}pyridine-2-carboxylic acid] | 0.5 | 15 | – | – | – |
| O=C(Nc1nc2ccccc2s1)c1cccc2c1CN(c1ccc(-c3cnn(CC45CC6CC(CC(C6)O4)C5)c3)c(C(=O)O)n1)CC2 [Example 13, 6-[8-(1,3-benzothiazol-2-ylcarbamoyl)-3,4-dihydroisoquinolin-2(1H)-yl]-3-[1-(2-oxatricyclo[3.3.1.1^3,7]dec-1-ylmethyl)-1H-pyrazol-4-yl]pyridine-2-carboxylic acid] | 71 | – | 10 | – | – |
| Cc1c(-c2ccc(N3CCc4cccc(C(=O)Nc5nc6ccccc6s5)c4C3)nc2C(=O)O)cnn1CC12CC3CC(CC(C3)O1)C2 [Example 59, 6-[8-(1,3-benzothiazol-2-ylcarbamoyl)-3,4-dihydroisoquinolin-2(1H)-yl]-3-[5-methyl-1-(2-oxatricyclo[3.3.1.1^3,7]dec-1-ylmethyl)-1H-pyrazol-4-yl]pyridine-2-carboxylic acid] | 0.3 | 31 | – | 24 | – |
| COCCC1(Cn2ncc(-c3ccc(N4CCc5cccc(C(=O)Nc6nc7ccccc7s6)c5C4)nc3C(=O)O)c2C)CCCCCCC1 [Example 46, 6-[8-(1,3-benzothiazol-2-ylcarbamoyl)-3,4-dihydroisoquinolin-2(1H)-yl]-3-(1-{[1-(2-methoxyethyl)cyclooctyl]methyl}-5-methyl-1H-pyrazol-4-yl)pyridine-2-carboxylic acid] | 1 | 58 | – | – | – |
| Cc1c(-c2ccc(N3CCc4cccc(C(=O)Nc5nc6ccccc6s5)c4C3)nc2C(=O)O)cccc1N(C)C(=O)C12CC3CC(CC(C3)C1)C2 [Example 52, 6-[8-(1,3-benzothiazol-2-ylcarbamoyl)-3,4-dihydroisoquinolin-2(1H)-yl]-3-(2-methyl-3-{methyl[tricyclo[3.3.1.1^3,7]dec-1-ylcarbonyl]amino}phenyl)pyridine-2-carboxylic acid] | 3 | – | – | 29 | – |
| Cc1c(OC23CC4CC(CC(C4)C2)C3)cccc1-c1ccc(N2CCc3cccc(C(=O)Nc4nc5ccccc5s4)c3C2)nc1C(=O)O [Example 28, 6-[8-(1,3-benzothiazol-2-ylcarbamoyl)-3,4-dihydroisoquinolin-2(1H)-yl]-3-{2-methyl-3-[tricyclo[3.3.1.1^3,7]dec-1-yloxy]phenyl}pyridine-2-carboxylic acid] | 22 | – | – | 526 | – |
| O=C(Nc1nc2ccccc2s1)c1cccc2c1CN(c1ccc(-c3cnn(CC45CC6CC(CC(C6)C4)C5)c3)c(C(=O)O)n1)CC2 [Example 1, 6-[8-(1,3-benzothiazol-2-ylcarbamoyl)-3,4-dihydroisoquinolin-2(1H)-yl]-3-{1-[tricyclo[3.3.1.1^3,7]dec-1-ylmethyl]-1H-pyrazol-4-yl}pyridine-2-carboxylic acid] | 39 | – | – | 201 | – |
| Cc1c(-c2ccc(N3CCc4cccc(C(=O)Nc5nc6ccccc6s5)c4C3)nc2C(=O)O)cc(C#N)n1CC12CC3CC(CC(C)(C3)O1)C2 [Example 72, 6-[8-(1,3-benzothiazol-2-ylcarbamoyl)-3,4-dihydroisoquinolin-2(1H)-yl]-3-{5-cyano-2-methyl-1-[(3-methyl-2-oxatricyclo[3.3.1.1^3,7]dec-1-yl)methyl]-1H-pyrrol-3-yl}pyridine-2-carboxylic acid] | 0.2 | – | – | 35 | – |
| Cc1c(-c2ccc(N3CCc4cccc(C(=O)Nc5cn6ccccc6n5)c4C3)nc2C(=O)O)cnn1CC12CC3CC(CC(C3)C1)C2 [Example 49, 6-[8-(imidazo[1,2-a]pyridin-2-ylcarbamoyl)-3,4-dihydroisoquinolin-2(1H)-yl]-3-[5-methyl-1-(tricyclo[3.3.1.1^3,7]dec-1-ylmethyl)-1H-pyrazol-4-yl]pyridine-2-carboxylic acid] | 5 | 15 | – | – | – |
| Cc1c(-c2ccc(N3CCc4cccc(C(=O)Nc5nc6ccccc6s5)c4C3)nc2C(=O)NS(=O)(=O)C2CC2)cnn1CC12CC3CC(CC(C3)C1)C2 [Example 18, N-(1,3-benzothiazol-2-yl)-2-{6-[(cyclopropylsulfonyl)carbamoyl]-5-[5-methyl-1-(tricyclo[3.3.1.1^3,7]dec-1-ylmethyl)-1H-pyrazol-4-yl]pyridin-2-yl}-1,2,3,4-tetrahydroisoquinoline-8-carboxamide] | 1 | – | 31 | 24 | – |
| COC12CC3CC(CC(Cn4ncc(-c5ccc(N6CCc7cccc(C(=O)Nc8nc9ccccc9s8)c7C6)nc5C(=O)O)c4C)(C3)C1)C2 [Example 16, 6-[8-(1,3-benzothiazol-2-ylcarbamoyl)-3,4-dihydroisoquinolin-2(1H)-yl]-3-(1-{[3-methoxytricyclo[3.3.1.1^3,7]dec-1-yl]methyl}-5-methyl-1H-pyrazol-4-yl)pyridine-2-carboxylic acid] | < 1 | – | 20 | – | – |
| Cc1c(-c2ccc(N3CCc4cccc(C(=O)Nc5nc6cccnc6s5)c4C3)nc2C(=O)O)cnn1CC12CC3CC(CC(C3)C1)C2 [Example 24, 3-[5-methyl-1-(tricyclo[3.3.1.1^3,7]dec-1-ylmethyl)-1H-pyrazol-4-yl]-6-[8-([1,3]thiazolo[5,4-b]pyridin-2-ylcarbamoyl)-3,4-dihydroisoquinolin-2(1H)-yl]pyridine-2-carboxylic acid] | < 1 | – | 29 | – | – |
| Cc1c(-c2ccc(N3CCc4cccc(C(=O)Nc5nc6ccccc6s5)c4C3)nc2C(=O)O)cnn1CC12CC3CC(CC(C3)C1)C2 [Example 3, 6-[8-(1,3-benzothiazol-2-ylcarbamoyl)-3,4-dihydroisoquinolin-2(1H)-yl]-3-[5-methyl-1-(tricyclo[3.3.1.1^3,7]dec-1-ylmethyl)-1H-pyrazol-4-yl]pyridine-2-carboxylic acid] | < 1 | – | – | 6 | […] |
